# Experimental data from US8314089B2, “Substituted pyrazolamides and their use” (AiCuris GmbH & Co. KG, priority 2008, dated 2012).
# Test system: HIV
# Assay: HIV infection in cell culture (H9 cells, 2% FCS)
# Format: cell-based
# Conditions: Human immunodeficiency virus 1, HIV-infected H9 cells, suppression of 50% of virus-induced syncytia
# Method: The HIV test is conducted according to the method of Pauswels et al. [cf. Journal of Virological Methods 1988, 20, 309-321], with modifications.
# Primary human blood lymphocytes (PBLs) are enriched using Ficoll-Hypaque and stimulated, in RPMI 1640 medium, 20% fetal calf serum, with phytohemagglutinin (90 μg/ml) and interleukin-2 (40 U/ml). For the infection with the infectious HIV, the PBLs are pelletted and the cell pellet is subsequently suspended in 1 ml of a suitable diluted HIV virus adsorption solution and incubated for 1 hour at 37° C. (pellet infection). Unabsorbed virus is subsequently removed by centrifugation, and the infected cells are transferred to test plates (e.g. 96-well microtiter plates), which contain the test substances in a suitable dilution.
# Alternatively, for example HIV-susceptible, permanent H9 cells (ATCC or NIAID, USA) are used instead of normal human blood lymphocytes for testing the antiviral effects of the compounds of the invention. Infected H9 cells are grown for test purposes in RPMI 1640 medium, 2% and/or 20% fetal calf serum.
# The virus adsorption solution is centrifuged and the infected cell pellet is taken up in growth medium, so as to give 1×10^5 cells per ml. The cells infected in this way are pipetted at approx. 1×10^4 cells/well into the wells of 96-well microtiter plates (pellet infection). Alternatively the HIV is pipetted in separately only after preparation of the substance dilutions in the microtiter plates and after addition of the cells (supernatant infection).
# The first vertical row of the microtiter plate contains only growth medium and cells that are not infected, but are otherwise treated exactly as described above (cell control). The second vertical row of the microtiter plate receives only HIV-infected cells (virus control) in growth medium. The other wells contain the compounds of the invention in various concentrations, starting from the wells of the 3rd vertical row of the microtiter plate, from which the test substances are diluted 2^10-fold in 2-fold steps.
# Alternatively, supernatant infections are carried out (see above), in which the cells are sown in 96-well plates. The HIV virus is then added in a volume of 50 μl.
# The test preparations are incubated at 37° C., until the formation of syncytia that is typical of HIV occurs in the untreated virus control (between day 3 and 6 after infection), which is then evaluated either microscopically or by p24 ELISA detection methods (Vironostika, BioMerieux, The Netherlands) or photometrically or fluorometrically using Alamar Blue indicator dye.
# The IC50 values are determined as the concentration of the test substance at which 50% (approx. 20-100 syncytia) of the virus-induced syncytia are suppressed by the treatment with the compound of the invention. The cut-off values are set correspondingly in the ELISA test and in the photometric or fluorometric determination using Alamar Blue. In addition to determination of the antiviral effects, the treated cell cultures are also investigated microscopically with respect to cytotoxic, cytostatic or cytological changes and with respect to solubility. Active compounds that show cell-altering, cytotoxic findings in the concentration range of the activity are not assessed for their antiviral activity.
row,Structure (SMILES),IC50
1,O=C(c1cc(-c2cccc(C(F)(F)F)c2)n(-c2cccc(Cl)c2)n1)N1CCC(O)C1 (centres unmarked) [Example 2],0.05 µM
2,O=C(c1cc(-c2cccc(OC(F)(F)F)c2)n(-c2cccc(Cl)c2)n1)N1CCOCC1 [Example 4],0.05 µM
3,O=C(c1cc(-c2cccc(OC(F)(F)F)c2)n(-c2cccc(Cl)c2)n1)N1CCCOCC1 [Example 5],0.04 µM
4,O=C(c1cc(-c2cccc(OC(F)(F)F)c2)n(-c2cccc(Cl)c2)n1)N1CCSC1 [Example 6],0.1 µM
5,O=C(c1cc(-c2cccc(OC(F)(F)F)c2)n(-c2cccc(Cl)c2)n1)N1CC[C@@H](O)C1 [Example 10],0.05 µM
6,"O=CN1CCN(C(=O)c2cc(-c3cccc(SC(F)(F)F)c3)n(-c3cccc(Cl)c3)n2)CC1 [Example 15, 4-{[1-(3-Chlorophenyl)-5-(3-trifluoromethylthiophenyl)-1H-pyrazol-3-yl]carbonyl}-piperazine-1-carbaldehyde]",0.15 µM
7,N#Cc1cccc(-c2cc(C(=O)N3CCOCC3)nn2-c2cccc(Cl)c2)c1 [Example 32],0.04 µM
8,O=C(c1cc(-c2ccccc2)n(-c2cccc(Cl)c2)n1)N1CCOCC1 [Example 33],0.05 µM
9,O=C(c1cc(-c2ccccc2)n(-c2cccc(Cl)c2)n1)N1CCSC1 [Example 34],0.08 µM
10,COc1ccc(-c2cc(C(=O)N3CCOCC3)nn2-c2cccc(Cl)c2)cc1OC [Example 35],0.1 µM
11,O=C(c1cc(-c2cccc(C(F)(F)F)c2)n(-c2cccc(Cl)c2)n1)N1CCSC1 [Example 43],0.1 µM
